# Data: PubChem BioAssay (NCI)
#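 96-well plates; 48 h exposure; 5 concentrations. Endpoints by linear interpolation between flanking doses. Not reached: highest tested concentration assigned. TGI: total growth inhibition.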
# Columns and labels:
# Test in all cases: inhibition of tumour cell growth, NCI panel, 48 h
# NCI-H522 lung = tested on: NCI-H522 lung
# SW-620 colon = tested on: SW-620 colon
# HL-60(TB) leukemia = tested on: HL-60(TB) leukemia
# U251 CNS = tested on: U251 CNS
# SK-OV-3 ovarian = tested on: SK-OV-3 ovarian
# SK-MEL-2 melanoma = tested on: SK-MEL-2 melanoma
# TK-10 renal = tested on: TK-10 renal
# LXFL 529 NSCLC = tested on: LXFL 529 NSCLC
# SNB-78 CNS = tested on: SNB-78 CNS
# SK-MEL-28 melanoma = tested on: SK-MEL-28 melanoma
# OVCAR-8 ovarian = tested on: OVCAR-8 ovarian
# NCI-H23 lung = tested on: NCI-H23 lung
# DMS 273 small cell lung = tested on: DMS 273 small cell lung
# HOP-62 NSCLC = tested on: HOP-62 NSCLC
# UACC-62 melanoma = tested on: UACC-62 melanoma
# CAKI-1 renal = tested on: CAKI-1 renal
# RXF 393 renal = tested on: RXF 393 renal
# SNB-19 CNS = tested on: SNB-19 CNS
# HCT-15 colon = tested on: HCT-15 colon
# HOP-18 NSCLC = tested on: HOP-18 NSCLC
# M19-MEL melanoma = tested on: M19-MEL melanoma
# ACHN renal = tested on: ACHN renal
# MALME-3M melanoma = tested on: MALME-3M melanoma
# HT29 colon = tested on: HT29 colon
# COLO 205 colon = tested on: COLO 205 colon
# OVCAR-4 ovarian = tested on: OVCAR-4 ovarian
# KM12 colon = tested on: KM12 colon
# SK-MEL-5 melanoma = tested on: SK-MEL-5 melanoma
# UACC-257 melanoma = tested on: UACC-257 melanoma
# HOP-92 NSCLC = tested on: HOP-92 NSCLC
# OVCAR-3 ovarian = tested on: OVCAR-3 ovarian
# XF 498 CNS = tested on: XF 498 CNS
# 786-0 renal = tested on: 786-0 renal
# SF-268 CNS = tested on: SF-268 CNS
# A549 NSCLC = tested on: A549 NSCLC
# KM20L2 colon = tested on: KM20L2 colon
# LOX IMVI melanoma = tested on: LOX IMVI melanoma
# CCRF-CEM leukemia = tested on: CCRF-CEM leukemia
# UO-31 renal = tested on: UO-31 renal
# EKVX NSCLC = tested on: EKVX NSCLC
# MOLT-4 leukemia = tested on: MOLT-4 leukemia
# SF-295 CNS = tested on: SF-295 CNS
# DLD-1 colon = tested on: DLD-1 colon
# SR leukemia = tested on: SR leukemia
# K-562 leukemia = tested on: K-562 leukemia
# SF-539 CNS = tested on: SF-539 CNS
# SN12C renal = tested on: SN12C renal
# HCT-116 colon = tested on: HCT-116 colon
# RXF-631 renal = tested on: RXF-631 renal
# OVCAR-5 ovarian = tested on: OVCAR-5 ovarian
# NCI-H460 lung = tested on: NCI-H460 lung
# NCI-H226 lung = tested on: NCI-H226 lung
# HCC-2998 colon = tested on: HCC-2998 colon
# M14 melanoma = tested on: M14 melanoma
# IGROV1 ovarian = tested on: IGROV1 ovarian
# SNB-75 CNS = tested on: SNB-75 CNS
smiles,measurement,setting,value
CCOc1ccccc1NC(=O)CC1Sc2ccccc2NC1=O (stereo unspecified),TGI,NCI-H522 lung,73.7 µM
same,TGI,SW-620 colon,> 100 µM
same,TGI,HL-60(TB) leukemia,67.9 µM
same,TGI,U251 CNS,> 100 µM
same,TGI,SK-OV-3 ovarian,> 100 µM
same,TGI,SK-MEL-2 melanoma,> 100 µM
same,TGI,TK-10 renal,> 100 µM
same,TGI,LXFL 529 NSCLC,> 100 µM
same,TGI,SNB-78 CNS,> 100 µM
same,TGI,SK-MEL-28 melanoma,> 100 µM
same,TGI,OVCAR-8 ovarian,> 100 µM
same,TGI,NCI-H23 lung,> 100 µM
same,TGI,DMS 273 small cell lung,> 100 µM
same,TGI,HOP-62 NSCLC,> 100 µM
same,TGI,UACC-62 melanoma,> 100 µM
same,TGI,CAKI-1 renal,> 100 µM
same,TGI,RXF 393 renal,> 100 µM
same,TGI,SNB-19 CNS,> 100 µM
same,TGI,HCT-15 colon,> 100 µM
same,TGI,HOP-18 NSCLC,> 100 µM
same,TGI,M19-MEL melanoma,> 100 µM
same,TGI,ACHN renal,> 100 µM
same,TGI,MALME-3M melanoma,> 100 µM
same,TGI,HT29 colon,> 100 µM
same,TGI,COLO 205 colon,> 100 µM
same,TGI,OVCAR-4 ovarian,> 100 µM
same,TGI,KM12 colon,> 100 µM
same,TGI,SK-MEL-5 melanoma,86.6 µM
same,TGI,UACC-257 melanoma,> 100 µM
same,TGI,HOP-92 NSCLC,76.8 µM
same,TGI,OVCAR-3 ovarian,> 100 µM
same,TGI,XF 498 CNS,> 100 µM
same,TGI,786-0 renal,> 100 µM
same,TGI,SF-268 CNS,> 100 µM
same,TGI,A549 NSCLC,> 100 µM
same,TGI,KM20L2 colon,> 100 µM
same,TGI,LOX IMVI melanoma,> 100 µM
same,TGI,CCRF-CEM leukemia,> 100 µM
same,TGI,UO-31 renal,> 100 µM
same,TGI,EKVX NSCLC,> 100 µM
same,TGI,MOLT-4 leukemia,> 100 µM
same,TGI,SF-295 CNS,> 100 µM
same,TGI,DLD-1 colon,> 100 µM
same,TGI,SR leukemia,75.7 µM
same,TGI,K-562 leukemia,> 100 µM
same,TGI,SF-539 CNS,> 100 µM
same,TGI,SN12C renal,> 100 µM
same,TGI,HCT-116 colon,> 100 µM
same,TGI,RXF-631 renal,> 100 µM
same,TGI,OVCAR-5 ovarian,> 100 µM
same,TGI,NCI-H460 lung,> 100 µM
same,TGI,NCI-H226 lung,> 100 µM
same,TGI,HCC-2998 colon,> 100 µM
same,TGI,M14 melanoma,> 100 µM
same,TGI,IGROV1 ovarian,> 100 µM
same,TGI,SNB-75 CNS,> 100 µM
